Measurements: PubChem BioAssay (NCI)
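Grown in 96-well plates, cells were treated for 48 hours with each compound at five concentrations. Insufficient inhibition: endpoint recorded as highest concentration tested. GI50 = concentration required for 50% inhibition of growth. Definition used: TGI = concentration required for complete inhibition of growth.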

Key:
Experiment in all cases: growth of human tumour cells (NCI), 48 h
[1] = system: MOLT-4 leukemia
[2] = system: HL-60(TB) leukemia
[3] = system: SK-MEL-2 melanoma
[4] = system: T-47D breast
[5] = system: LOX IMVI melanoma
[6] = system: SNB-75 CNS
[7] = system: CAKI-1 renal
[8] = system: ACHN renal
[9] = system: HT29 colon
[10] = system: RXF 393 renal
[11] = system: UO-31 renal
[12] = system: HCC-2998 colon
[13] = system: M14 melanoma
[14] = system: NCI-H522 lung
[15] = system: SK-MEL-5 melanoma
[16] = system: SR leukemia
[17] = system: OVCAR-5 ovarian
[18] = system: TK-10 renal
[19] = system: SF-295 CNS
[20] = system: OVCAR-4 ovarian
[21] = system: NCI-H460 lung
[22] = system: SNB-19 CNS
[23] = system: MDA-MB-468 breast
[24] = system: BT-549 breast
[25] = system: NCI-H226 lung
[26] = system: 786-0 renal
[27] = system: IGROV1 ovarian
[28] = system: DU-145 prostate
[29] = system: MDA-MB-231 breast
[30] = system: KM12 colon
[31] = system: OVCAR-3 ovarian
[32] = system: SF-268 CNS
[33] = system: RPMI-8226 leukemia
[34] = system: A549 NSCLC
[35] = system: SK-MEL-28 melanoma
[36] = system: EKVX NSCLC
[37] = system: MALME-3M melanoma
[38] = system: HOP-92 NSCLC
[39] = system: CCRF-CEM leukemia
[40] = system: UACC-257 melanoma
[41] = system: NCI-H23 lung
[42] = system: HCT-116 colon
[43] = system: SK-OV-3 ovarian
[44] = system: HS 578T breast
[45] = system: MCF7 breast
[46] = system: SN12C renal
[47] = system: OVCAR-8 ovarian
[48] = system: SW-620 colon
[49] = system: SF-539 CNS
[50] = system: K-562 leukemia
[51] = system: PC-3 prostate
[52] = system: UACC-62 melanoma
[53] = system: HOP-62 NSCLC
[54] = system: MDA-MB-435
[55] = system: HCT-15 colon
[56] = system: COLO 205 colon
[57] = system: A498 renal

## CONC[C@]1(C)C=C2C(=O)[C@](C)(O)C3(CC3)C(C)=C2[C@H]1O
[1]
  GI50: 0.688 µM
  TGI: > 100 µM
[2]
  GI50: 0.485 µM
  TGI: 6.44 µM
[3]
  GI50: 0.858 µM
  TGI: 2.25 µM
[4]
  GI50: 2.05 µM
  TGI: 7.89 µM
[5]
  GI50: 0.868 µM
  TGI: 6.63 µM
[6]
  GI50: 1.76 µM
  TGI: 3.8 µM
[7]
  GI50: 1.05 µM
  TGI: 18.8 µM
[8]
  GI50: 0.233 µM
  TGI: 0.565 µM
[9]
  GI50: 0.42 µM
  TGI: 6.66 µM
[10]
  GI50: 0.41 µM
  TGI: 1.65 µM
[11]
  GI50: 1.27 µM
  TGI: 4.39 µM
[12]
  GI50: 1.38 µM
  TGI: 3.4 µM
[13]
  GI50: 1.41 µM
  TGI: 4.87 µM
[14]
  GI50: 0.314 µM
  TGI: 1.47 µM
[15]
  GI50: 1.05 µM
  TGI: 4.95 µM
[16]
  GI50: 0.65 µM
  TGI: > 100 µM
[17]
  GI50: 0.346 µM
  TGI: 5.65 µM
[18]
  GI50: 3.32 µM
  TGI: 19.2 µM
[19]
  GI50: 0.345 µM
  TGI: 42.4 µM
[20]
  GI50: 2.9 µM
  TGI: 9.09 µM
[21]
  GI50: 0.353 µM
  TGI: 11 µM
[22]
  GI50: 2.12 µM
  TGI: 7.58 µM
[23]
  GI50: 0.518 µM
  TGI: 1.97 µM
[24]
  GI50: 1.02 µM
  TGI: 4.67 µM
[25]
  GI50: 2.95 µM
  TGI: 9.13 µM
[26]
  GI50: 1.65 µM
  TGI: 6.9 µM
[27]
  GI50: 1.6 µM
  TGI: 8.01 µM
[28]
  GI50: 0.436 µM
  TGI: 16.5 µM
[29]
  GI50: 1.75 µM
  TGI: 5.88 µM
[30]
  GI50: 2.32 µM
  TGI: 15.4 µM
[31]
  GI50: 2.66 µM
  TGI: 7.96 µM
[32]
  GI50: 1.07 µM
  TGI: 12.8 µM
[33]
  GI50: 9.67 µM
  TGI: > 100 µM
[34]
  GI50: 0.324 µM
  TGI: 11.3 µM
[35]
  GI50: 1.81 µM
  TGI: 3.78 µM
[36]
  GI50: 1.77 µM
  TGI: 4.85 µM
[37]
  GI50: 1.05 µM
  TGI: 2.49 µM
[38]
  GI50: 0.705 µM
  TGI: 4.32 µM
[39]
  GI50: 0.57 µM
  TGI: 6.66 µM
[40]
  GI50: 1.72 µM
  TGI: 4.62 µM
[41]
  GI50: 0.422 µM
  TGI: 1.89 µM
[42]
  GI50: 0.298 µM
  TGI: 46.4 µM
[43]
  GI50: 1.31 µM
  TGI: 4.83 µM
[44]
  GI50: 2.55 µM
  TGI: 7.26 µM
[45]
  GI50: 0.298 µM
  TGI: 5.34 µM
[46]
  GI50: 2.33 µM
  TGI: 9.36 µM
[47]
  GI50: 1.44 µM
  TGI: 4.35 µM
[48]
  GI50: 1.78 µM
  TGI: > 100 µM
[49]
  GI50: 1.28 µM
  TGI: 2.79 µM
[50]
  GI50: 0.661 µM
  TGI: > 100 µM
[51]
  GI50: 0.754 µM
  TGI: 6.12 µM
[52]
  GI50: 1.55 µM
  TGI: 3.01 µM
[53]
  GI50: 1.63 µM
  TGI: 4.55 µM
[54]
  GI50: 1.84 µM
  TGI: 3.9 µM
[55]
  GI50: 0.384 µM
  TGI: > 100 µM
[56]
  GI50: 1.48 µM
  TGI: 3.21 µM
[57]
  GI50: 2.23 µM
  TGI: 5.39 µM
